The record followed here is ChEMBL document CHEMBL5442175, “EUbOPEN Chemogenomics Library - PDSP Secondary Binding” (2024).

Counter-ions that a name gives are not always drawn.

In one experiment the target is D(2) dopamine receptor (Homo sapiens, UniProt P14416). Put plainly: PDSP Secondary Binding target: DRD2 - Compounds are tested at 10 uM concentration, plate are incubated at room temperature in the dark for 90 minutes. Reaction are stopped by vacuum filtration onto 0.3% polyethyleneimine soaked filter mats using Filtermate harvester. Scintillation cocktail is then melted onto microwave-dried filters on a hot plate and the radio activity is counted in Microbia counter.

The target of experiment [1] is T1, 5-hydroxytryptamine receptor 2C (Homo sapiens, UniProt P28335).
T1 sequence (P28335 whole entry): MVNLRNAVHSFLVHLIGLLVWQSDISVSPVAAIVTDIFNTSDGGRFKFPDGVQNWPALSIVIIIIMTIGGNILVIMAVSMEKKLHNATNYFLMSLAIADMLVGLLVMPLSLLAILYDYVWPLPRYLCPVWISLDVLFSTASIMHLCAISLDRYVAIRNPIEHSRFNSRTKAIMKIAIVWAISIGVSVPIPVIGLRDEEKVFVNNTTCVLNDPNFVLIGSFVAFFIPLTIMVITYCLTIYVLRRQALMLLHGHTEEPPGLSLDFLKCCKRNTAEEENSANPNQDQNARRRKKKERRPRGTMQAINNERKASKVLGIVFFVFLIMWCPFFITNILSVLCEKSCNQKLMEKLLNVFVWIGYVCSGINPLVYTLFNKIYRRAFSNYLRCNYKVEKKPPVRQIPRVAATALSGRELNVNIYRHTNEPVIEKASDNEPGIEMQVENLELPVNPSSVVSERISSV
The experiment is described as follows: PDSP Secondary Binding target: HTR2C - Compounds are tested at 10 uM concentration, plate are incubated at room temperature in the dark for 90 minutes. Reaction are stopped by vacuum filtration onto 0.3% polyethyleneimine soaked filter mats using Filtermate harvester. Scintillation cocktail is then melted onto microwave-dried filters on a hot plate and the radio activity is counted in Microbia counter.

The target of experiment [2] is T2, Alpha-1A adrenergic receptor (Homo sapiens, UniProt P35348).
T2 sequence (P35348 whole entry): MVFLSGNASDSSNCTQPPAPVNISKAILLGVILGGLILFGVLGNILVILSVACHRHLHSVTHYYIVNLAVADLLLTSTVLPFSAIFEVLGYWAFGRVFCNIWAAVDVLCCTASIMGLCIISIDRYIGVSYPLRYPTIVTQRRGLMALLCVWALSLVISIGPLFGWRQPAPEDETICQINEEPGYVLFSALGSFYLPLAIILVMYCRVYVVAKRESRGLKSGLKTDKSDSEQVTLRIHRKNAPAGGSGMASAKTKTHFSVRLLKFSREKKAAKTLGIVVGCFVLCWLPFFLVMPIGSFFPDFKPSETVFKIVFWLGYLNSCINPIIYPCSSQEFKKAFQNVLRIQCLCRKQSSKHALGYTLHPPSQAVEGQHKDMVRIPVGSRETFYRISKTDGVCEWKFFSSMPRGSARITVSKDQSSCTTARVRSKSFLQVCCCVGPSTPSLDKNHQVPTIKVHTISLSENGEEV
Put plainly: PDSP Secondary Binding target: ADRA1A - Compounds are tested at 10 uM concentration, plate are incubated at room temperature in the dark for 90 minutes. Reaction are stopped by vacuum filtration onto 0.3% polyethyleneimine soaked filter mats using Filtermate harvester. Scintillation cocktail is then melted onto microwave-dried filters on a hot plate and the radio activity is counted in Microbia counter.

Experiment [3] addresses T3, Alpha-1D adrenergic receptor (Homo sapiens, UniProt P25100).
T3 sequence (P25100 whole entry): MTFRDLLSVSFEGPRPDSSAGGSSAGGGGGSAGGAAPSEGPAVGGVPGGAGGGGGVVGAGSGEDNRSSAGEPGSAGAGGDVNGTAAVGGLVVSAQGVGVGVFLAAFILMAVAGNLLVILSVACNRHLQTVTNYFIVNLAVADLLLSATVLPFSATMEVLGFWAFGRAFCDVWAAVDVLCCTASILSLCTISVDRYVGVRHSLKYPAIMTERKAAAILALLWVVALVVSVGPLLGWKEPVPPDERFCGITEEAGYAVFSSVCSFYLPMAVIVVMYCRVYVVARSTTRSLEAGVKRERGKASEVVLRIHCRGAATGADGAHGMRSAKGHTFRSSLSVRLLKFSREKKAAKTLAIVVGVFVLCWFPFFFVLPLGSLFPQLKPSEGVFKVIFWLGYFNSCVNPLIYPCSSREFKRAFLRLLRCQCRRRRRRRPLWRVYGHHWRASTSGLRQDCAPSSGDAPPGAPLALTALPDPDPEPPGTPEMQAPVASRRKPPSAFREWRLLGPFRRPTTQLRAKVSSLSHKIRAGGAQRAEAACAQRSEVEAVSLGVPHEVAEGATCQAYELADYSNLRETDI
The experiment is described as follows: PDSP Secondary Binding target: ADRA1D - Compounds are tested at 10 uM concentration, plate are incubated at room temperature in the dark for 90 minutes. Reaction are stopped by vacuum filtration onto 0.3% polyethyleneimine soaked filter mats using Filtermate harvester. Scintillation cocktail is then melted onto microwave-dried filters on a hot plate and the radio activity is counted in Microbia counter.

Experiment [4] addresses T4, Alpha-2A adrenergic receptor (Homo sapiens, UniProt P08913).
T4 sequence (P08913 whole entry): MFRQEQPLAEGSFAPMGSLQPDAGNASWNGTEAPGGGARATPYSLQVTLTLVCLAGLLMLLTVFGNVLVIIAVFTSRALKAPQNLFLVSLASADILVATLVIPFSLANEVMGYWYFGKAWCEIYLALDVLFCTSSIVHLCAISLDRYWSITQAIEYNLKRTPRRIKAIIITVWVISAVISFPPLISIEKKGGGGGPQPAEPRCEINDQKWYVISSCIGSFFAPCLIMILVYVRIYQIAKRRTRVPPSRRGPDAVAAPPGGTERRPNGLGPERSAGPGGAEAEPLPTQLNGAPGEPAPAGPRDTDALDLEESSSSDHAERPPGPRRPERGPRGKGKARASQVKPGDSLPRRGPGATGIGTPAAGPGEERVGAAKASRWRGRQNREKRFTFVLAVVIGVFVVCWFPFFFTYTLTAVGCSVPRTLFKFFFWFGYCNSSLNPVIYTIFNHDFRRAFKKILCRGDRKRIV
Put plainly: PDSP Secondary Binding target: ADRA2A - Compounds are tested at 10 uM concentration, plate are incubated at room temperature in the dark for 90 minutes. Reaction are stopped by vacuum filtration onto 0.3% polyethyleneimine soaked filter mats using Filtermate harvester. Scintillation cocktail is then melted onto microwave-dried filters on a hot plate and the radio activity is counted in Microbia counter.

For experiment [5], the target named is 5-hydroxytryptamine receptor 7 (Homo sapiens, UniProt P34969). Put plainly: PDSP Secondary Binding target: HTR7 - Compounds are tested at 10 uM concentration, plate are incubated at room temperature in the dark for 90 minutes. Reaction are stopped by vacuum filtration onto 0.3% polyethyleneimine soaked filter mats using Filtermate harvester. Scintillation cocktail is then melted onto microwave-dried filters on a hot plate and the radio activity is counted in Microbia counter.
Sequence of 5-hydroxytryptamine receptor 7 (P34969 whole entry): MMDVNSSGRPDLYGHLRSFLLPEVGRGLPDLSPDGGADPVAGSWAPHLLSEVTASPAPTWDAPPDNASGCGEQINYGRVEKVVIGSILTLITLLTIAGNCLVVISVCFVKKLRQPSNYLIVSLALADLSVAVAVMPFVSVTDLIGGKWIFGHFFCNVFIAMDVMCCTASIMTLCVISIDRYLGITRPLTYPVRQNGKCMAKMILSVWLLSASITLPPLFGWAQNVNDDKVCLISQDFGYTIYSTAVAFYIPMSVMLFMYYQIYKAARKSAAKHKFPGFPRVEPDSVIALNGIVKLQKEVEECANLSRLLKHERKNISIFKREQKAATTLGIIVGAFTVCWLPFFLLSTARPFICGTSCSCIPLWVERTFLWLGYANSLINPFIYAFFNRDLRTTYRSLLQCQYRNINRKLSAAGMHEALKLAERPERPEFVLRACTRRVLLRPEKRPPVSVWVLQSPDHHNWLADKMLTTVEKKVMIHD

Sequence of D(2) dopamine receptor (P14416 whole entry): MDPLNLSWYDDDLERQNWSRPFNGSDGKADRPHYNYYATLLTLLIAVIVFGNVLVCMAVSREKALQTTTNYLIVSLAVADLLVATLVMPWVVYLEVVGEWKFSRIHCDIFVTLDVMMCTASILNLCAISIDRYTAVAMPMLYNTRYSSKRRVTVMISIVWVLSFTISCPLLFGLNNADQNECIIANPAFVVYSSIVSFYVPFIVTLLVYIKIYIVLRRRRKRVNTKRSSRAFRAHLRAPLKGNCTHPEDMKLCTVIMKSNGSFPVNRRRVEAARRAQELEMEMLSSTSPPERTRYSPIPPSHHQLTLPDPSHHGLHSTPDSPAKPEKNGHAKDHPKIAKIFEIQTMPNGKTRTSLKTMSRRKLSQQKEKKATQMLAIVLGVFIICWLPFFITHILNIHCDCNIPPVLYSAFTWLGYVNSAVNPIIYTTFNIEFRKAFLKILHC

Usually Ki stands for a dissociation constant, usually derived from enzyme kinetics or from competition with a known ligand. Lower therefore signals a stronger hold on the target. With `CCCCCNC(=N)N/N=C/c1c[nH]c2ccc(OC)cc12` [TEGASEROD MALEATE], the inhibitory constant (Ki) on D(2) dopamine receptor came to 297 nM; in experiment [1], 142 nM; in experiment [2], 1630 nM; in experiment [3], 1640 nM.

As to `O=c1ccc2ccc(OCCCCN3CCN(c4cccc5sccc45)CC3)cc2[nH]1` [BREXPIPRAZOLE], the Ki came out at 5.99 nM on D(2) dopamine receptor; 60.5 nM in experiment [1]; 212 nM in experiment [4]; 30.4 nM in experiment [5]; 29.3 nM in experiment [2]; 76.4 nM in experiment [3].

Turning to `Cc1ccc2c(c1)c1c(n2CCc2ccc(C)nc2)CCN(C)C1` [LATREPIRDINE], the inhibition constant (Ki) was 1550 nM on D(2) dopamine receptor; 729 nM in experiment [4]; 14.7 nM in experiment [5]; 414 nM in experiment [2]; 767 nM in experiment [3].

For the compound `C[C@H](Cc1cc2c(c(C(N)=O)c1)N(CCCO)CC2)NCCOc1ccccc1OCC(F)(F)F` [SILODOSIN], the Ki at D(2) dopamine receptor came to 989 nM; in experiment [4], 683 nM; in experiment [5], 480 nM; in experiment [2], 30.3 nM; in experiment [3] it was 47.3 nM.

As to `CN1CCCC(n2nc(Cc3ccc(Cl)cc3)c3ccccc3c2=O)CC1` (stereo not given) [AZELASTINE HYDROCHLORIDE], the inhibitory constant (Ki) at D(2) dopamine receptor was determined as 1180 nM; in experiment [4] it was 1450 nM; in experiment [5] it was 385 nM; in experiment [2], 496 nM; in experiment [3], 333 nM.
